The source made the active and inactive calls. The calls are words filed in the database; no cut-off is given here.
Experiments:
[1] = test system: MGC-803; experiment: Upregulation of p27 protein expression in human MGC-803 cells at 5 to 15 uM incubated for 48 hrs by Western blotting analysis; format: functional, cell-based; details: dose 5-15 µM
[2] = test system: PC-3; experiment: Inhibition of cell migration in human PC-3 cells incubated for 48 hrs by wound healing assay; format: functional, cell-based; details: dose 2.5-7.5 µM
[3] = Toxicity against NOD-SCID mouse assessed as body weight loss at 25 to 50 mg/kg, IG administered for 21 days; format: organism-based; details: in vivo, po, 504 h, dose 25-50 mg/kg, time 21 day
[4] = test system: PC-3; experiment: Induction of cell cycle arrest in human PC-3 cells assessed as cells at G0/G1 phase at 15 uM incubated for 48 hrs by PI staining based flow cytometry (reference value: 55.1%); format: functional
[5] = test system: PC-3; experiment: Inhibition of cell proliferation in human PC-3 cells at 2 to 50 uM by MTT assay; format: functional, cell-based; details: dose 2-50 µM, time 24-72 hrs, TDE = time-dependent effect
[6] = test system: PC-3; experiment: Induction of cell cycle arrest in human PC-3 cells assessed as cells at G0/G1 phase at 5 uM incubated for 36 hrs by PI staining based flow cytometry (reference value: 54.5%); format: functional
[7] = test system: PC-3; experiment: Inhibition of colony formation in human PC-3 cells incubated for 10 days by crystal violet staining based inverted microscopic analysis; format: functional, cell-based; details: dose 1-3 µM, time 10.0 day
[8] = test system: MGC-803; experiment: Antitumor activity against human MGC-803 cells xenografted in NOD-SCID mouse assessed as tumor growth inhibition at 50 mg/kg, IG administered for 21 days; format: functional; details: MGC-803, po, 504 h, time 21 day, read-out: TGI
[9] = test system: MGC-803; experiment: Inhibition of cell proliferation in human MGC-803 cells incubated for 72 hrs by MTT assay; format: functional, cell-based; details: MGC-803, 72 h
[10] = test system: MGC-803; experiment: Induction of cell cycle arrest in human MGC-803 cells assessed as cells at S phase at 7.5 uM incubated for 36 hrs by PI staining based flow cytometry (reference value: 18.2%); format: functional
[11] = Toxicity against NOD-SCID mouse assessed as change in kidney morphology at 25 to 50 mg/kg, IG administered for 21 days by H and E staining based assay; format: organism-based; details: in vivo, po, 504 h, dose 25-50 mg/kg, time 21 day
[12] = test system: MGC-803; experiment: Antitumor activity against human MGC-803 cells xenografted in IG dosed NOD-SCID mouse assessed as inhibition of tumor proliferation administered for 21 days; format: functional, organism-based; details: dose 25-50 mg/kg, time 21.0 day
[13] = target: S-phase kinase-associated protein 2 (Homo sapiens) (UniProt Q13309); experiment: Binding affinity to SKP2 in human PC-3 cells assessed as increase in thermal stability at 57 to 68 degreeC incubated for 4 hrs by CETSA; format: cell-based
[14] = test system: PC-3; experiment: Induction of cell cycle arrest in human PC-3 cells assessed as cells at S phase at 7.5 uM incubated for 36 hrs by PI staining based flow cytometry (reference value: 22.8%); format: functional
[15] = test system: MGC-803; experiment: Inhibition of cell migration in human MGC-803 cells incubated for 48 hrs by wound healing assay; format: functional, cell-based; details: dose 2.5-7.5 µM
[16] = test system: MGC-803; experiment: Induction of cell cycle arrest in human MGC-803 cells assessed as cells at G2/M phase at 15 uM incubated for 12 hrs by PI staining based flow cytometry (reference value: 20.8%); format: functional
[17] = test system: PC-3; experiment: Upregulation of p21 protein expression in human PC-3 cells at 15 uM by Western blotting analysis; format: functional, cell-based; details: time 6-48 hrs, TDE = time-dependent effect
[18] = test system: MGC-803; experiment: Induction of cell cycle arrest in human MGC-803 cells assessed as cells at G2/M phase at 7.5 uM incubated for 36 hrs by PI staining based flow cytometry (reference value: 20.6%); format: functional
[19] = Cmax in Sprague-Dawley rat at 50 mg/kg, po measured upto 24 hrs by LC/MS-MS analysis; format: ADME, organism-based; details: in vivo
[20] = test system: MGC-803; experiment: Upregulation of p21 protein expression in human MGC-803 cells at 15 uM by Western blotting analysis; format: functional, cell-based; details: time 6-48 hrs, TDE = time-dependent effect
[21] = test system: MGC-803; experiment: Induction of cell cycle arrest in human MGC-803 cells assessed as cells at G0/G1 phase at 15 uM incubated for 24 hrs by PI staining based flow cytometry (reference value: 57.9%); format: functional
[22] = Half-life in Sprague-Dawley rat at 1 mg/kg, iv measured upto 24 hrs by LC/MS-MS analysis; format: ADME, organism-based; details: in vivo
[23] = Clearance in Sprague-Dawley rat at 1 mg/kg, iv measured upto 24 hrs by LC/MS-MS analysis; format: ADME, organism-based; details: in vivo
[24] = test system: MGC-803; experiment: Induction of cell cycle arrest in human MGC-803 cells assessed as cells at G0/G1 phase at 15 uM incubated for 6 hrs by PI staining based flow cytometry (reference value: 57.9%); format: functional
[25] = test system: MGC-803; experiment: Induction of cell cycle arrest in human MGC-803 cells assessed as cells at G0/G1 phase at 5 uM incubated for 36 hrs by PI staining based flow cytometry (reference value: 57.1%); format: functional
[26] = test system: MGC-803; experiment: Induction of cell cycle arrest in human MGC-803 cells assessed as cells at G0/G1 phase at 15 uM incubated for 36 hrs by PI staining based flow cytometry (reference value: 57.1%); format: functional
[27] = test system: PC-3; experiment: Inhibition of cell invasion in human PC-3 cells incubated for 48 hrs by […]; format: functional, cell-based; details: dose 2.5-7.5 µM
[28] = test system: PC-3; experiment: Induction of cell cycle arrest in human PC-3 cells assessed as cells at G2/M phase at 7.5 uM incubated for 36 hrs by PI staining based flow cytometry (reference value: 21.3%); format: functional
[29] = AUCinfinity in Sprague-Dawley rat at 50 mg/kg, po measured upto 24 hrs by LC/MS-MS analysis; format: ADME, organism-based; details: in vivo
[30] = test system: MGC-803; experiment: Induction of cell cycle arrest in human MGC-803 cells assessed as cells at G2/M phase at 15 uM incubated for 36 hrs by PI staining based flow cytometry (reference value: 20.6%); format: functional
[31] = test system: MGC-803; experiment: Upregulation of p27 protein expression in human MGC-803 cells at 15 uM by Western blotting analysis; format: functional, cell-based; details: time 6-48 hrs, TDE = time-dependent effect
[32] = test system: MGC-803; experiment: Inhibition of DNA synthesis in human MGC-803 cells incubated for 24 hrs by EdU staining based fluorescence microscopic analysis; format: functional, cell-based; details: dose 2.5-7.5 µM
[33] = test system: PC-3; experiment: Induction of cell cycle arrest in human PC-3 cells assessed as cells at G0/G1 phase at 15 uM incubated for 6 hrs by PI staining based flow cytometry (reference value: 55.1%); format: functional
[34] = test system: MGC-803; experiment: Inhibition of colony formation in human MGC-803 cells incubated for 10 days by crystal violet staining based inverted microscopic analysis; format: functional, cell-based; details: dose 1-3 µM, time 10.0 day
[35] = test system: PC-3; experiment: Induction of cell cycle arrest in human PC-3 cells assessed as cells at G2/M phase at 15 uM incubated for 6 hrs by PI staining based flow cytometry (reference value: 21.4%); format: functional
[36] = AUClast in Sprague-Dawley rat at 50 mg/kg, po measured upto 24 hrs by LC/MS-MS analysis; format: ADME, organism-based; details: in vivo
[37] = test system: MGC-803; experiment: Induction of cell cycle arrest in human MGC-803 cells assessed as cells at G2/M phase at 15 uM incubated for 24 hrs by PI staining based flow cytometry (reference value: 20.8%); format: functional
[38] = test system: MGC-803; experiment: Induction of cell cycle arrest in human MGC-803 cells assessed as cells at G2/M phase at 15 uM incubated for 6 hrs by PI staining based flow cytometry (reference value: 20.8%); format: functional

Sequence of S-phase kinase-associated protein 2 (Homo sapiens) (Q13309 whole entry): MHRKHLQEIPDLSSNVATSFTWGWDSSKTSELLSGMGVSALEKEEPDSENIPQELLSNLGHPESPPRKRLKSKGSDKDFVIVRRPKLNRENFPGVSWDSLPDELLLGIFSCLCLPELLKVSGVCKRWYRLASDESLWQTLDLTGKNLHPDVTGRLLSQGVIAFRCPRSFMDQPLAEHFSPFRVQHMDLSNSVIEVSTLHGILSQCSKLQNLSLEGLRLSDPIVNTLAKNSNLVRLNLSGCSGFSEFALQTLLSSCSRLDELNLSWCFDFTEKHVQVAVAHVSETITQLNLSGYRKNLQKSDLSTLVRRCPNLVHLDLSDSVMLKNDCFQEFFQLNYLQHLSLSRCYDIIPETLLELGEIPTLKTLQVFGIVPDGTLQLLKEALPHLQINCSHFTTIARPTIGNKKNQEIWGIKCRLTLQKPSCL

With `COc1ccc(-c2cc(C)nc3nc(SCc4ccc(Br)cc4)nn23)c(OC)c1` the Activity [1] was “Active”, the inhibition [2] was “Dose-Dependent Effect” and the Activity [3] was “Non-Toxic”. The Activity [4] was 36.9%, the inhibition [5] was “Tde” and the Activity [6] was 46.9%. The inhibition [7] was “Dose-Dependent Effect”, the inhibition in vivo at 50 mg/kg [8] was 76.9% and the IC50 [9] was 10.8 µM. The Activity [10] was 35.8%, the Activity [11] was “Non-Toxic” and the Activity [12] was “Dose-Dependent Effect”. For the same molecule, the Activity [13] was “Active”, the Activity [14] was 37.2% and the inhibition [15] was “Dose-Dependent Effect”. The Activity [16] was 21.6%, the Activity [17] was “Tde” and the Activity [18] was 18.7%. For the same molecule, the Cmax [19] was 168 ng/mL, the Activity [20] was “Tde” and the Activity [21] was 40.4%. It also gave a t1/2 [22] of 1.49 h, a CL [23] of 24 mL/min/kg and an Activity [24] of 49.7%. For the same molecule, the Activity [25] was 49.8%, the Activity [26] was 39.3% and the inhibition [27] was “Dose-Dependent Effect”. For the same molecule, the Activity [28] was 21.9%, the AUC(0-inf) [29] was 1070 ng·h/mL and the Activity [30] was 14.4%. The Activity [31] was “Tde”, the inhibition [32] was “Dose-Dependent Effect” and the Activity [33] was 52.8%. The inhibition [34] was “Dose-Dependent Effect”, the Activity [35] was 20.3% and the AUC(0-t) at 24 h [36] was 906 ng·h/mL. For the same molecule, the Activity [37] was 16.1% and the Activity [38] was 21.9%.

Reference: ChEMBL document CHEMBL5579901, “Discovery of Novel [1,2,4]Triazolo[1,5-a]pyrimidine Derivatives as Novel Potent S-Phase Kinase-Associated Protein 2 (SKP2) Inhibitors for the Treatment of Cancer” (J Med Chem, 2024)
